In test [1] the target is T1, Progesterone receptor (Homo sapiens, UniProt P06401).
T1 sequence (P06401 whole entry): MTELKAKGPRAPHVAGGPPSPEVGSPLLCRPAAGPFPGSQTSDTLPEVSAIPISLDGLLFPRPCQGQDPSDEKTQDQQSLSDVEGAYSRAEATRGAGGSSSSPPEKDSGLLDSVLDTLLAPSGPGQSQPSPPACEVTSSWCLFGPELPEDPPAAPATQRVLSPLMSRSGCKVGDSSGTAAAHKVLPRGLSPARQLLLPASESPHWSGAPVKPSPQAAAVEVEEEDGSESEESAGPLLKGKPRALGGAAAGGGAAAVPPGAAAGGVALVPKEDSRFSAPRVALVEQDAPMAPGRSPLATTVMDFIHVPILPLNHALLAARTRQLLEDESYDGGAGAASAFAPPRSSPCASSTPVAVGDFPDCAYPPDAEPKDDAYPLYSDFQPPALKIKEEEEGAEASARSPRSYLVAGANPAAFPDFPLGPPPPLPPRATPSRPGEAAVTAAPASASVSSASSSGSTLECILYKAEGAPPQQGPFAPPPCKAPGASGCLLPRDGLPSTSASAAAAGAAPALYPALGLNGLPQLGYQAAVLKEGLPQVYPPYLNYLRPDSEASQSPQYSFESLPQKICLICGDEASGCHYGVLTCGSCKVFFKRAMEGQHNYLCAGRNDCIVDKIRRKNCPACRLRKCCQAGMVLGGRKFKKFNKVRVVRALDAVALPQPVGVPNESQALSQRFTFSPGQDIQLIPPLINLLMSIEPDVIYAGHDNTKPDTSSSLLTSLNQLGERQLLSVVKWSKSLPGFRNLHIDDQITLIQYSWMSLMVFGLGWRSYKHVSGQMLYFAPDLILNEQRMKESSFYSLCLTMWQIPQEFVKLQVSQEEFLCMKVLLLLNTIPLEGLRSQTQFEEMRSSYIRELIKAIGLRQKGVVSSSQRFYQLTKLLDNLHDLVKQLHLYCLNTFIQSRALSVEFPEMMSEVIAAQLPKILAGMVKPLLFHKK
Format: functional.

In test [2] the target is Delta-type opioid receptor (Homo sapiens, UniProt P41143).
The target in test [3] is Mu-type opioid receptor (Homo sapiens, UniProt P35372).
The target in test [4] is T2, Muscarinic acetylcholine receptor M2 (Homo sapiens, UniProt P08172).
T2 sequence (P08172 whole entry): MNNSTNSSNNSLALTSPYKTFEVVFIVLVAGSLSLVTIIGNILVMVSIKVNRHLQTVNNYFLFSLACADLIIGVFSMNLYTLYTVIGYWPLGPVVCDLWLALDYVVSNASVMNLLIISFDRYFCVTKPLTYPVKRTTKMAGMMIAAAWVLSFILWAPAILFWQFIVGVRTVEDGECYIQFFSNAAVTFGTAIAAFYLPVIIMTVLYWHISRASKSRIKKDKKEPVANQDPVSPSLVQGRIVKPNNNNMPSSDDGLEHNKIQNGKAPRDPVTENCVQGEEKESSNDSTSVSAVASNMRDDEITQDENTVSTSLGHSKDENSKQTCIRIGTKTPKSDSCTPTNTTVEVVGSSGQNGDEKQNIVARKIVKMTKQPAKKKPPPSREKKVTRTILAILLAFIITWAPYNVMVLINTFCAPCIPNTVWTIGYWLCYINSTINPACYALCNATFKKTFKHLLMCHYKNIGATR
Format: functional, cell-based.

Test [5] concerns the target Gamma-aminobutyric acid receptor subunit alpha-1 (Rattus norvegicus, UniProt P62813).
Test [6] concerns the target Sodium-dependent dopamine transporter (Homo sapiens, UniProt Q01959).
The target of test [7] is D(1A) dopamine receptor (Homo sapiens, UniProt P21728). Format: functional, cell-based.
The target in test [8] is Growth hormone secretagogue receptor type 1 (Homo sapiens, UniProt Q92847).
Test [9] deals with Beta-2 adrenergic receptor (Homo sapiens, UniProt P07550). Format: functional, cell-based.
Test [10] deals with Histamine H3 receptor (Homo sapiens, UniProt Q9Y5N1).
Test [11] concerns the target Cannabinoid receptor 1 (Homo sapiens, UniProt P21554). Format: functional, cell-based.
The target in test [12] is T2, Muscarinic acetylcholine receptor M2. Format: functional, cell-based. This is another data set of the same source.
The target of test [13] is Voltage-dependent L-type calcium channel subunit alpha-1C (Rattus norvegicus, UniProt P22002). Format: functional.
In test [14] the target is T3, 5-hydroxytryptamine receptor 1A (Homo sapiens, UniProt P08908).
T3 sequence (P08908 whole entry): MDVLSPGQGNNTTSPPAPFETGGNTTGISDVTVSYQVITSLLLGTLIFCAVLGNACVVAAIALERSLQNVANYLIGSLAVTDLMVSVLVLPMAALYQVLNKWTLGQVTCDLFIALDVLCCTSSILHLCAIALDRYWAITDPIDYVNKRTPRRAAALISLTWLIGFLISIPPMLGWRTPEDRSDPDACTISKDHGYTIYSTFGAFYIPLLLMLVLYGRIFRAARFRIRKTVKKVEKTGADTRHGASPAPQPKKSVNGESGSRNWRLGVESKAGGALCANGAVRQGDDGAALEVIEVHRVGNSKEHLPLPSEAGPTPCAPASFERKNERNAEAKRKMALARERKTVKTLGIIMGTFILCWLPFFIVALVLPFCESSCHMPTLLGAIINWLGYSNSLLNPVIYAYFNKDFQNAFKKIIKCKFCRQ
Format: functional, cell-based.

The structures appear in SMILES notation.
Further: assay procedure not described here.

Chain of Histamine H3 receptor (Q9Y5N1 whole entry): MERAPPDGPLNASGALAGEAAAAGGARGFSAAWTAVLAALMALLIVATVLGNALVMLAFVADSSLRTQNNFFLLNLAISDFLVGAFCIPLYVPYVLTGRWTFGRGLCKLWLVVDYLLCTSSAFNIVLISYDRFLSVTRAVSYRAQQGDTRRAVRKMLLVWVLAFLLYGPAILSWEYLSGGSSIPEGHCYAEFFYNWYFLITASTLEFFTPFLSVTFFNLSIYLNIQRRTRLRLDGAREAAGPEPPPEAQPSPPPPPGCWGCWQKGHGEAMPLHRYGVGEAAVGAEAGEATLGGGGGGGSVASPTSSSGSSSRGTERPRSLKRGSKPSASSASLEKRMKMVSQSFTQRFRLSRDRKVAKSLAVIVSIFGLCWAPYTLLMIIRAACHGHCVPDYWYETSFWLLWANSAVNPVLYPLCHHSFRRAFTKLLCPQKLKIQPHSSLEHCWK
Chain of Sodium-dependent dopamine transporter (Q01959 whole entry): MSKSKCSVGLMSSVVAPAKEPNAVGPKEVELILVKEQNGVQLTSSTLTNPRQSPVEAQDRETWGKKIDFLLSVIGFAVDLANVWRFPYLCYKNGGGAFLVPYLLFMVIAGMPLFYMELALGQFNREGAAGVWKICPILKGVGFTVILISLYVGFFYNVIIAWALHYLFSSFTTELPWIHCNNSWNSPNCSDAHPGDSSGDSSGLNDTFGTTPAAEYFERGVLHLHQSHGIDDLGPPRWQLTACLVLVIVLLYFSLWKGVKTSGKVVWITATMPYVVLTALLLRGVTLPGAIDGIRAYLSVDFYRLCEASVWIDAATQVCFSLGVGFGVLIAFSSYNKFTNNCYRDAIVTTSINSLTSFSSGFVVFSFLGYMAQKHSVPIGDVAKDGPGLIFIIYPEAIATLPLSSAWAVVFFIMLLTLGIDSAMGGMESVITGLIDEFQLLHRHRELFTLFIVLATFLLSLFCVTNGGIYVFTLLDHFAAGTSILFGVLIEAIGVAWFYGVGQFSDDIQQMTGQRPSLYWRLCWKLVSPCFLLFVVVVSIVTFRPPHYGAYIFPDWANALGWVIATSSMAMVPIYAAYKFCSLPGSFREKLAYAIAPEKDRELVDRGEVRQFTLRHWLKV
Chain of Delta-type opioid receptor (P41143 whole entry): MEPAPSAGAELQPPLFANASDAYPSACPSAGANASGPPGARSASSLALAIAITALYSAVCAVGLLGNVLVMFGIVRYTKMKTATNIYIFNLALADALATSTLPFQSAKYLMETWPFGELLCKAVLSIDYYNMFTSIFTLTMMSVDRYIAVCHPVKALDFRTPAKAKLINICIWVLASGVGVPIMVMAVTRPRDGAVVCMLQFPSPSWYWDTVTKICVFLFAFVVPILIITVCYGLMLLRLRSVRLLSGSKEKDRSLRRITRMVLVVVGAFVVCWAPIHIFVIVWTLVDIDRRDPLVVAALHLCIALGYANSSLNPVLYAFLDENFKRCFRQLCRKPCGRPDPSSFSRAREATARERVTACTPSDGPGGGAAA
Chain of Beta-2 adrenergic receptor (P07550 whole entry): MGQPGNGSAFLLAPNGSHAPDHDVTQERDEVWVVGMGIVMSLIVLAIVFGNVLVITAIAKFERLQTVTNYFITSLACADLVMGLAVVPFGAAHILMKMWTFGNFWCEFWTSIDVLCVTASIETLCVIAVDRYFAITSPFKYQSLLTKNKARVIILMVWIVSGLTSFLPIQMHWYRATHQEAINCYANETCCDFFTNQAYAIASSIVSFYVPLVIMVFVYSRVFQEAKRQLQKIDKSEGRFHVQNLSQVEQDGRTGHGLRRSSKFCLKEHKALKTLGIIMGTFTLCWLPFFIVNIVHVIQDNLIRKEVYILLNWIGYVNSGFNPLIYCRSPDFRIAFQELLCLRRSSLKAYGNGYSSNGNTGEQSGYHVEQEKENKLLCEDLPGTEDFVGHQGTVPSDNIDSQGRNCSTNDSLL
Chain of Mu-type opioid receptor (P35372 whole entry): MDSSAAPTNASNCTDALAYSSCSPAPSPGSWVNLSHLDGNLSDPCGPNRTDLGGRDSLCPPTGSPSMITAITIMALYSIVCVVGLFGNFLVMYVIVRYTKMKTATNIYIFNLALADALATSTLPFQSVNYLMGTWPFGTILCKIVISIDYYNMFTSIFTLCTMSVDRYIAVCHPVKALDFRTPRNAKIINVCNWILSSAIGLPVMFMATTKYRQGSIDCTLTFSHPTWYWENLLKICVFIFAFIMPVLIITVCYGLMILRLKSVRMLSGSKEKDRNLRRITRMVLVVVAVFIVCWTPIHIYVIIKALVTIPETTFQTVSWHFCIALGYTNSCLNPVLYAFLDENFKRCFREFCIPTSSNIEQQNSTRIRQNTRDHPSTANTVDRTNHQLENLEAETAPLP
Chain of D(1A) dopamine receptor (P21728 whole entry): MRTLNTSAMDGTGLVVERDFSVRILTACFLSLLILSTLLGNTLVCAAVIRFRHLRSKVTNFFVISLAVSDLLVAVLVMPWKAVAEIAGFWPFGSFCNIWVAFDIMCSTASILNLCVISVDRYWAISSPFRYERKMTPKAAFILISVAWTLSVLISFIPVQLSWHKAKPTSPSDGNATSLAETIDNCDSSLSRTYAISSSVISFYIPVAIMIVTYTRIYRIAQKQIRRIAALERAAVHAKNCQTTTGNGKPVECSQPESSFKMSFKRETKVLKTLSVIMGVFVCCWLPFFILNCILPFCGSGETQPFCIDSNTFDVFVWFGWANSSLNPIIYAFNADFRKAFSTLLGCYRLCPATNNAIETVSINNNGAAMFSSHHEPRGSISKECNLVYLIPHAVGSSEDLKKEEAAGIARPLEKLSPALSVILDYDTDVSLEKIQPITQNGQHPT
Chain of Voltage-dependent L-type calcium channel subunit alpha-1C (P22002 whole entry): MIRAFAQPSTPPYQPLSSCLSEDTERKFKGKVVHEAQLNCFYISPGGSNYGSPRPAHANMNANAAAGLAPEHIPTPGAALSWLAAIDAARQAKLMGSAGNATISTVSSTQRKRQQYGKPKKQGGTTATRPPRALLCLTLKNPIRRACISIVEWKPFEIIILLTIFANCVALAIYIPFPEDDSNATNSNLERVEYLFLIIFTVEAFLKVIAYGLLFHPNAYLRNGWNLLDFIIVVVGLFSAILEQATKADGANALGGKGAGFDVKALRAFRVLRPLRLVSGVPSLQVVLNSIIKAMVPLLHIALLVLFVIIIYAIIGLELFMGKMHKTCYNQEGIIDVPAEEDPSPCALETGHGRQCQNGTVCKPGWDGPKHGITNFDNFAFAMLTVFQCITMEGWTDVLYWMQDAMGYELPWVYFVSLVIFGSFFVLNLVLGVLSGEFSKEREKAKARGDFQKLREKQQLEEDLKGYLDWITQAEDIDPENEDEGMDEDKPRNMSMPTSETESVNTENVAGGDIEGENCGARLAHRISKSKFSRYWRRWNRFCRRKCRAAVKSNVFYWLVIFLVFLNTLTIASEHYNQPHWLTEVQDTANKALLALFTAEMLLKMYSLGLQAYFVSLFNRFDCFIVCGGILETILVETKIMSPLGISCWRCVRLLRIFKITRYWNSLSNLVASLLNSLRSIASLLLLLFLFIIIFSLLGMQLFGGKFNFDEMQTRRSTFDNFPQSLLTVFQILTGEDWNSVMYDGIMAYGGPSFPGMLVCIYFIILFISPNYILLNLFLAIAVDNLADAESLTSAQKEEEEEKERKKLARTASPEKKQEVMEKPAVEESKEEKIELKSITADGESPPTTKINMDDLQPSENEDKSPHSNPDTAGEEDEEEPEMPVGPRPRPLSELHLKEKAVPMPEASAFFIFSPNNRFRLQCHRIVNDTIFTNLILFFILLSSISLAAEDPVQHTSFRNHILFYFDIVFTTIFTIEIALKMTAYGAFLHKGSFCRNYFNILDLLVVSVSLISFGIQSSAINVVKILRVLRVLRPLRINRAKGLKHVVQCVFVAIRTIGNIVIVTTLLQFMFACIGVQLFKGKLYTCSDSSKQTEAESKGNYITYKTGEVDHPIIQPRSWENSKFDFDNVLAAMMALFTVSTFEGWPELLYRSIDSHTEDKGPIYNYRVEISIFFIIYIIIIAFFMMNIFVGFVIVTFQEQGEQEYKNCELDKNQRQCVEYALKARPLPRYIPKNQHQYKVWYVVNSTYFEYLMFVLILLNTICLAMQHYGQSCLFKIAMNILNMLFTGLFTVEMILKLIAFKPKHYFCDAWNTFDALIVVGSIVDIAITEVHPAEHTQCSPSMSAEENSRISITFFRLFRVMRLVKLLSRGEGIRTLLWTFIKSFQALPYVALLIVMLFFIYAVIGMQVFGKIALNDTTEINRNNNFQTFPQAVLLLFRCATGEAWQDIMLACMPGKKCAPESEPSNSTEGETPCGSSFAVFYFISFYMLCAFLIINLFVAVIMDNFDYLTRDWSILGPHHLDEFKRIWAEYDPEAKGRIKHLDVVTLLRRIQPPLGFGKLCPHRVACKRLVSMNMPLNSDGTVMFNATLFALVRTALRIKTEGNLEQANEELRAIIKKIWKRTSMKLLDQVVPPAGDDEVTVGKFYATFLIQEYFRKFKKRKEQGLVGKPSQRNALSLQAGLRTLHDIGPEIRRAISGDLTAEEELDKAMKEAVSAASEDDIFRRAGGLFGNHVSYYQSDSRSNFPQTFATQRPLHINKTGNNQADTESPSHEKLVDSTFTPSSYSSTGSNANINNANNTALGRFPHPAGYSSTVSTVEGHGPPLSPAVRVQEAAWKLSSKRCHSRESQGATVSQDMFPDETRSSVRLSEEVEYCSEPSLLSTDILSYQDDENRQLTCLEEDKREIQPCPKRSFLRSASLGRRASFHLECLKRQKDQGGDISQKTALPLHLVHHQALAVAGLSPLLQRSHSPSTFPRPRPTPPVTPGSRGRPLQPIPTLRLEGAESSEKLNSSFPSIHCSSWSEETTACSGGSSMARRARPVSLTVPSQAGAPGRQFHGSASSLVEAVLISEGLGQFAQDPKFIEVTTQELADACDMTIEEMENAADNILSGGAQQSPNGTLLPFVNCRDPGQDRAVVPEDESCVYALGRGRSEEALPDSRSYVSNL

Regarding `C[C@@H](NCCCc1cccc(C(F)(F)F)c1)c1cccc2ccccc12`, the AC50 in test [1] is more than 30 µM; in test [2], more than 30 µM; in test [3] it was 2.5 µM; in test [4], more than 30 µM; in test [5], more than 30 µM; in [6], 6.4 µM. The AC50 was more than 30 µM in test [7]; 10 µM in test [8]; more than 30 µM in test [9]; more than 30 µM in test [10]; more than 30 µM in [11]; more than 30 µM in [12].
Regarding `CN(C)CCc1c[nH]c2ccc(Cn3cncn3)cc12` [RIZATRIPTAN], the AC50 in [2] is more than 30 µM; in [3], more than 10 µM; in test [4], more than 30 µM; in test [5], more than 30 µM; in test [6], more than 10 µM; in test [7], more than 30 µM. In addition, the AC50 in [8] is more than 30 µM; in [13], more than 10 µM; in test [9], more than 30 µM; in test [10], more than 10 µM; in [11], more than 30 µM; in test [12], more than 30 µM.
On to `Nc1ccc(S(=O)(=O)Nc2nccs2)cc1` [SULFATHIAZOLE], for which the AC50 is more than 30 µM in [2]; more than 10 µM in test [14]; more than 30 µM in test [3]; more than 10 µM in test [4]; more than 10 µM in test [5]; more than 10 µM in test [6]. Further, the AC50 in test [7] is more than 10 µM; in test [8], more than 30 µM; in test [13], more than 10 µM; in [9], more than 30 µM; in [10], more than 10 µM; in [11] it was more than 30 µM. Also, the AC50 in test [12] was more than 10 µM.
For the compound `CC(S)C(=O)NCC(=O)O` (stereo unspecified) [TIOPRONIN], the AC50 in [1], in test [2], in test [14], in test [3], in test [4] and in test [6] was more than 30 µM each time. Also, the AC50 in test [7], in test [8], in [9], in test [10], in test [11] and in test [12] was more than 30 µM in each case.
Turning to `O=C1CCc2cc(OCCCCc3nnnn3C3CCCCC3)ccc2N1` [CILOSTAZOL], the AC50 in [1], in [2], in test [3], in [4], in test [5] and in test [6] was more than 30 µM in each case. Moreover, the AC50 in test [7], in test [8], in test [13], in test [9], in test [10] and in test [11] was more than 30 µM in each case. In test [12], the AC50 was more than 30 µM.
With `C[C@H]1c2cccc(O)c2C(=O)C2=C(O)[C@]3(O)C(=O)C(C(N)=O)=C(O)[C@@H](N(C)C)[C@@H]3[C@@H](O)[C@@H]21` [DOXYCYCLINE], the AC50 in [2] was more than 30 µM; in test [14] it was more than 10 µM; in test [3], more than 30 µM; in test [4], more than 10 µM; in test [5] it was more than 10 µM; in test [6], more than 10 µM. Also, the AC50 in [7] is more than 10 µM; in [8] it was more than 30 µM; in test [13], more than 10 µM; in test [9], more than 30 µM; in test [10] it was more than 10 µM; in [11], more than 30 µM. This compound gave an AC50 in test [12] of more than 10 µM.
In the case of `CCN1CCN(Cc2ccc(Nc3ncc(F)c(-c4cc(F)c5nc(C)n(C(C)C)c5c4)n3)nc2)CC1` [ABEMACICLIB], the AC50 in [1], in test [2], in test [14], in test [3], in test [4] and in test [6] was more than 30 µM in each case. The AC50 in test [7] was more than 30 µM; in test [8] it was more than 30 µM; in test [9], more than 30 µM; in [10], 0.31 µM; in test [11], more than 30 µM; in test [12], more than 30 µM.
As for `O=C1C(CC[S+]([O-])c2ccccc2)C(=O)N(c2ccccc2)N1c1ccccc1` (stereo unspecified) [SULFINPYRAZONE], the AC50 in test [1] was more than 10 µM; in [2], more than 30 µM; in [14] it was more than 10 µM; in test [3] it was more than 30 µM; in test [4] it was more than 10 µM; in [5] it was more than 10 µM. Further, the AC50 in test [6] is more than 10 µM; in test [7] it was more than 10 µM; in [8], more than 10 µM; in test [13] it was more than 10 µM; in test [9], more than 30 µM; in [11] it was more than 30 µM. In test [12], this compound came in with an AC50 of more than 10 µM.
In the case of `C[C@H](CCC(=O)O)[C@H]1CC[C@H]2[C@@H]3[C@@H](O)C[C@@H]4C[C@H](O)CC[C@]4(C)[C@H]3CC[C@]12C` [URSODIOL], the AC50 in test [2], in test [14], in [3], in test [4], in [6] and in test [7] was more than 30 µM in each case. The AC50 in test [8], in test [9], in test [10], in test [11] and in [12] was more than 30 µM in each case.
Consider `CC(C)c1nc(N(C)S(C)(=O)=O)nc(-c2ccc(F)cc2)c1/C=C/[C@@H](O)C[C@@H](O)CC(=O)O` [ROSUVASTATIN], for which the AC50 in test [1], in [2], in test [14], in test [3], in [4] and in [5] was more than 30 µM throughout. In addition, the AC50 in test [6], in [7], in test [8], in test [9], in test [10] and in [11] was more than 30 µM in each case. Besides, in test [12], the AC50 was more than 30 µM.
Take `C[C@@H](Oc1cc(-c2cnn(C3CCNCC3)c2)cnc1N)c1c(Cl)ccc(F)c1Cl` [CRIZOTINIB]: the AC50 in [1] was more than 30 µM; in test [2], more than 30 µM; in test [14] it was more than 10 µM; in test [3], more than 30 µM; in [4] it was more than 10 µM; in test [6], 7.8 µM. In addition, the AC50 is more than 30 µM in test [7]; 13.9 µM in [8]; 1.56 µM in test [13]; more than 30 µM in test [9]; more than 30 µM in test [11]; more than 10 µM in test [12].
